Data taken from patent publication US6267968A, “MDP derivatives and conjugates having haematipoietic function stimulating activity, and compositions containing same” (Vacsyn S.A., priority 1995, dated 2001).
Entries after “also recorded” stand apart in the source; their conditions may differ.

Assays:
[1] = test system: circulating leukocytes, neutrophils and myelocytes; test: Oral Muradimetide with nonmyelotoxic or myelotoxic intravenous doses of AZT, cell counts (Example 8); format: in vivo, female Swiss mice; conditions: Muradimetide 25 mg per kg orally 4 hours before AZT i.v. 5 or 40 mg per kg, days 0-3
Description: In this experiment female Swiss mice were injected intravenously with AZT at a dose of 5 or 40 mg per kg on days 0, 1, 2 and 3. On each of the 4 days, and 4 hours before the administration of AZT, groups of mice consisting of 5 individuals received orally either buffer or Muradimetide at a dose of 25 mg per kg.
Cell counts are done on days 0, 1, 2, 3, 4 and 7.
FIG. 3 represents the same experiment in which the myelocytes are counted.

[2] = test system: circulating neutrophils, leukocytes, monocytes and myelocytes; test: Comparison of Muradimetide and GM-CSF after intravenous AZT (Example 9); format: in vivo, female Swiss mice; conditions: AZT 40 mg per kg i.v. days 0-3; for HSC in the blood (circulating myelocytes, FIG. 7) / leukocyte and neutrophil counts: Muradimetide 25 mg per kg or mGM-CSF 125 μg per kg i.v. 4 hours before
Description: FIGS. 4, 5, 6 and 7 show the effect of a treatment of mice with Muradimetide or with mGM-CSF on the changes in the circulating neutrophils, in the circulating leukocytes or in the circulating monocytes or in the circulating myelocytes, respectively, after an intravenous administration of AZT.
Female Swiss mice were treated intravenously with 40 mg per kg of AZT on days 0, 1, 2 and 3. The groups of mice (5 per group) receive, 4 hours before AZT, either physiological saline, or Muradimetide at 25 mg per kg or mGM-CSF at 125 μg per kg intravenously. Counts are done on days 0, 2, 3, 4 and 8. The asterisks above the histograms indicate that there is a significant difference in the count compared to the values obtained before the treatment on day 0.

[3] = test system: circulating leukocytes, neutrophils and myelocytes; test: Intravenous or oral Muradimetide, cell counts modified by intravenous AZT (Example 2); format: in vivo, male CDI mice
Description: Treatment with AZT alone classically induces a decrease in the number of circulating leukocytes and neutrophils. This decrease is followed by a restoration occurring approximately 4 to 7 days after the beginning of the treatment. When Muradimetide has been administered systemically or orally after a treatment with 40 mg/kg of AZT, there is no fall in the number of cells and, on the contrary, there is a multiplication by at least 1.5 of the number of leukocytes and a tripling of the number of neutrophils, this already occurring after 4 days.
Male CDI mice (5 per group) were injected with AZT at a dose of 40 mg per kg on days 0 to 3. Muradimetide is administered on the same days at a dose of 10 mg per kg intravenously or 50 mg per kg orally. Cell counts are done an day 0 (before the treatment) and on days 3 and 4.

red cells and platelets = test: 7-day oral treatment with AZT, muradimetide or both, red cell and platelet counts (Example 3); format: in vivo; conditions: p.o. once daily for 7 consecutive days; AZT 100 mg/kg, muradimetide 50 mg/kg or both; counts up to day 10
Description: The effect of a 7-day treatment on the number of red cells and of platelets is seen in FIGS. 9 and 10, respectively. The counts are shown as a percentage of those obtained on day 0. Female BALB/c mice (5 per group) are treated once daily for 7 consecutive days with 100 mg/kg of AZT (Δ), 50 mg/kg of muradimetide (.quadrature.) or simultaneously with 100 mg/kg of AZT and 50 mg/kg of muradimetide (.largecircle.). Platelet or red cell counts were done on day 0 and up to 10 days following the beginning of the treatment. No toxicity on the platelets is seen, either with AZT, muradimetide or the mixture of these compounds. The upward trend in their number is apparent between days 4 and 5.

[4] = test system: circulating HSC (GM-CFU, LPP-CFU, HPP-CFU, CAFC, LTC-IC); test: Mobilization of HSC by stage of differentiation, culture of blood mononuclear cells (Example 7); format: in vivo, Balb/c mice; conditions: AZT 50 mg/kg, MDM 25 mg/kg or mixture once daily for three days; blood 24 hours after last administration
Description: In all cases, the culture conditions, especially their duration, were chosen to permit an optimal detection of the different populations in question. For this study, the effect of injecting saline (X--), AZT at 50 mg/kg, MDM at 25 mg/kg and the mixture of the two on the number of circulating HSC were compared. The mononuclear cells after purification were cultured for 5 days in order to count the GM-CFU (for granulocyte-macrophage colony forming units), for 28 days to count the low proliferating potential (LPP) colony forming units and the high proliferating potential (HPP) CFU. The CAFC were counted after 14 days of culture. The LTC-IC after 28 days. The results are presented in FIGS. 14a, 14b, 14c and 14d, respectively. The mice (10 Balb/c per group) received once daily and for three consecutive days either physiological saline, or AZT, or MDM or the mixture of the two under the above dose conditions. Twenty-four hours after the last administration, the blood of all the mice in each group was collected. For the experiments depicted in FIGS. 14a, 14b and 14c, the mononuclear cells were then separated on density gradients and cultured in a semisolid medium for a period of 5 days for the GM-CFU and 28 days for the LPP-CFU. […]

[5] = test system: normal circulating leukocytes (predominantly neutrophils and lymphocytes) and immature circulating leukocytes (myelocytes); test: Muradimetide administered alone intravenously for 4 consecutive days, circulating cell counts (Example 1); format: in vivo, mice; conditions: for No. of Lymphocytes / No. of Myelocytes / No. of Neutrophils: 25 mg/kg i.v.; for No. of Lymphocytes / No. of Myelocytes / No. of Neutrophils / No. of Leukocytes: 4 consecutive days; for No. of Leukocytes: Muradimetide 25 mg/kg i.v.
Description: Table 1 below depicts the leukocyte, neutrophil, lymphocyte and myelocyte counts as a function of the time after treatment with Muradimetide alone administered at a dose of 25 mg/kg. The treatment is performed for 4 consecutive days by intravenous injection.

[6] = test system: circulating myelocytes (HSC); test: Mobilization of HSC after combined oral treatment with AZT and Muradimetide (Example 4); format: in vivo, mice; conditions: for effect on the mobilization of HSC (myelocyte count, FIG. 11): MDM 25 mg/kg, AZT 50 mg/kg or mixture, oral, days 0-3 and 7-10 (2 weeks); for No. of circulating myelocytes: p.o., one compound alone at 0 h (AZT 50 mg/Kg or Muradimetide 25 mg/Kg), 24 hours after 4 daily administrations
Description: Table 3 below and FIG. 11 show the effect of an oral treatment of mice with Muradimetide before, at the same time as or after AZT administered at 50 mg per kg, on the number of circulating myelocytes tested 24 hours after 4 daily administrations.
The mean number of circulating myelocytes before the treatment lies between 3 and 15×10^4 cells per ml in the 5 groups.
The "P-value" was calculated by the Mann Whitney U Rank test.

circulating myelocytes = test: Comparison of oral Muradimetide with MDPA after intravenous AZT, myelocyte count (Example 10); format: in vivo, female Swiss mice; conditions: AZT 40 mg per kg i.v. days 0-3; MDPA 25 mg per kg 4 hours before AZT
Description: In this experiment, female Swiss mice were treated intravenously with 40 mg per kg of AZT on days 0, 1, 2 and 3. Groups of 5 mice received on the same four days, and 4 hours before AZT, either physiological saline, or MDPA at a dose of 25 mg per kg or Muradimetide orally at a dose of 25 mg per kg. Myelocyte counts were carried out on days 0, 2, 3, 4 and 8. The asterisks above the histograms have the same meaning as in the previous diagrams.

[7] = Muradimetide i.v. 10 mg/kg with AZT i.v. 40 mg/kg, day 0 (before the treatment)
[8] = Muradimetide i.v. 10 mg/kg with AZT i.v. 40 mg/kg, day 3
[9] = Muradimetide i.v. 10 mg/kg with AZT i.v. 40 mg/kg, day 4
[10] = Muradimetide p.o. 50 mg/Kg with AZT i.v. 40 mg/kg, day 0 (before the treatment)
[11] = Muradimetide p.o. 50 mg/Kg with AZT i.v. 40 mg/kg, day 3
[12] = Muradimetide p.o. 50 mg/Kg with AZT i.v. 40 mg/kg, day 4
[13] = Muradimetide systemically or orally after treatment with 40 mg/kg of AZT, after 4 days

Q: What does the source list for `COC(=O)CC[C@@H](NC(=O)[C@H](C)NC(=O)[C@@H](C)O[C@H]1[C@H](O)[C@@H](CO)OC(O)[C@@H]1NC(C)=O)C(=O)OC` (stereo partly drawn) [Muradimetide, Nac--Mur--L--Ala--D--Glu--[OCH3]--OCH3]?
A: time of maximum effect on leukocyte, neutrophil and myelocyte counts (FIGS. 1-3) [1]: 4 days; HSC in the blood (circulating myelocytes, FIG. 7) [2]: very strong elevation; also recorded: mobilizes HSC; leukocyte and neutrophil counts [2]: markedly pronounced effect; Leukocytes ([3]; Muradimetide i.v. 10 mg/kg days 0-3 with AZT i.v. 40 mg/kg, day 0 (before the treatment)): 6.0 ± 3.4 × 10^6 /ml; Leukocytes ([3]; Muradimetide i.v. 10 mg/kg days 0-3 with AZT i.v. 40 mg/kg, day 3): 5.9 ± 2.9 × 10^6 /ml; Leukocytes ([3]; Muradimetide i.v. 10 mg/kg days 0-3 with AZT i.v. 40 mg/kg, day 4): 7.6 ± 1.6 × 10^6 /ml; Myelocytes [3, 7]: 5 ± 7 × 10^4 /ml; Neutrophils [3, 7]: 2.0 ± 1.3 × 10^6 /ml; Myelocytes [3, 8]: 145 ± 83 × 10^4 /ml; Neutrophils [3, 8]: 1.5 ± 0.8 × 10^6 /ml; Myelocytes [3, 9]: 117 ± 46 × 10^4 /ml; Neutrophils [3, 9]: 4.6 ± 1.5 × 10^6 /ml; Leukocytes ([3]; Muradimetide p.o. 50 mg/Kg days 0-3 with AZT i.v. 40 mg/kg, day 0 (before the treatment)): 4.8 ± 0.4 × 10^6 /ml; Leukocytes ([3]; Muradimetide p.o. 50 mg/Kg days 0-3 with AZT i.v. 40 mg/kg, day 3): 6.1 ± 1.4 × 10^6 /ml; Leukocytes ([3]; Muradimetide p.o. 50 mg/Kg days 0-3 with AZT i.v. 40 mg/kg, day 4): 8.1 ± 2.9 × 10^6 /ml; Myelocytes [3, 10]: 14 ± 13 × 10^4 /ml; Neutrophils [3, 10]: 1.4 ± 0.5 × 10^6 /ml; Myelocytes [3, 11]: 123 ± 55 × 10^4 /ml; Neutrophils [3, 11]: 1.6 ± 0.5 × 10^6 /ml; Myelocytes [3, 12]: 138 ± 59 × 10^4 /ml; Neutrophils [3, 12]: 4.3 ± 2.47 × 10^6 /ml; increase of the number of neutrophils [3, 13]: tripling; multiplication of the number of leukocytes [3, 13]: at least 1.5; percentage of myelocytes or of promyelocytes ([3]; with AZT 40 mg/kg i.v., irrespective of mode of administration of Muradimetide): spectacular increase; toxicity on the platelets (red cells and platelets): No toxicity; effect on the number of circulating HSC (GM-CFU, LPP-CFU, HPP-CFU, CAFC; FIGS. 14a-14d) [4]: clearly apparent; No. of Lymphocytes ([5]; day 0): 38 ± 12 × 10^5 /ml; No. of Myelocytes ([5]; day 0): 7 ± 6 × 10^4 /ml; No. of Neutrophils ([5]; day 0): 11 ± 3 × 10^5 /ml; No. of Lymphocytes ([5]; day 2): 41 ± 17 × 10^5 /ml; No. of Myelocytes ([5]; day 2): 8 ± 8 × 10^4 /ml; No. of Neutrophils ([5]; day 2): 10 ± 3 × 10^5 /ml; No. of Lymphocytes ([5]; day 3): 35 ± 13 × 10^5 /ml; No. of Myelocytes ([5]; day 3): 40 ± 5 × 10^4 /ml; No. of Neutrophils ([5]; day 3): 13 ± 5 × 10^5 /ml; No. of Lymphocytes ([5]; day 4): 34 ± 8 × 10^5 /ml; No. of Myelocytes ([5]; day 4): 72 ± 27 × 10^4 /ml; No. of Neutrophils ([5]; day 4): 12 ± 4 × 10^5 /ml; No. of Lymphocytes ([5]; day 7): 38 ± 10 × 10^5 /ml; No. of Myelocytes ([5]; day 7): 4 ± 4 × 10^4 /ml; No. of Neutrophils ([5]; day 7): 12 ± 4 × 10^5 /ml; No. of Leukocytes ([5]; day 2): 52 ± 12 × 10^5 /ml; No. of Leukocytes ([5]; day 3): 52 ± 17 × 10^5 /ml; No. of Leukocytes ([5]; day 4): 52 ± 15 × 10^5 /ml; No. of Leukocytes ([5]; day 7): 50 ± 13 × 10^5 /ml; No. of Leukocytes ([5]; day of measurement 0): 50 ± 14 × 10^5 /ml; increase in the number of circulating myelocytes ([5]; Muradimetide administered alone, days 3 and 4): highly significant; effect on the mobilization of HSC (myelocyte count, FIG. 11) [6]: significant effect; No. of circulating myelocytes [6]: 17 ± 15 × 10^4 /ml

Q: With `Cc1cn([C@H]2C[C@H](N=[N+]=[N-])[C@@H](CO)O2)c(=O)[nH]c1=O` [AZT, 3'-azido-3'-deoxythymidine, reference compound] as the molecule, how does the “effect on the mobilization of HSC (myelocyte count, FIG. 11)” value [6] read?
A: no effect

Q: What about the “No. of circulating myelocytes” value [6] of the same molecule?
A: 6 ± 8 × 10^4 /ml

Q: How did the “antimyelotoxic effect and mobilization of HSC in the blood circulation (myelocyte count, FIG. 8)” value (circulating myelocytes) turn out when `CC(=O)N[C@H]1C(O)O[C@H](CO)[C@@H](O)[C@@H]1O[C@H](C)C(=O)N[C@@H](C)C(=O)N[C@H](CCC(=O)O)C(=O)O` (stereo partly drawn) [MDPA, Nac--Mur--L--Ala--D--Glu] was run?
A: not occurring

B1: GM-CSF: recombinant mouse GM-CSF, lymphokine customarily used to stimulate myelocytes (protein, UniProt P01587 18-141, looked up)
Granulocyte-macrophage …: APTRSPITVTRPWKHVEAIKEALNLLDDMPVTLNEEVEVVSNEFSFKKLTCVQTRLKIFEQGLRGNFTKLKGALNMTASYYQTYCPPTPETDCETQVTTYADFIDSLKTFLTDIPFECKKPGQK
Q: With B1 as the molecule, how does the “HSC in the blood (circulating myelocytes, FIG. 7)” value [2] read?
A: does not do so

Q: And the “leukocyte and neutrophil counts” value [2]?
A: do not display an increase

Q: What about the number of monocytes ([2]; mGM-CSF 125 μg per kg i.v. 4 hours before) of the same molecule?
A: increase in the number of monocytes
